target: CK1δ (Homo sapiens, UniProt P48730); assay: CK1δ kinase assay (Caliper LabChip electrophoretic separation of fluoresceinated peptide substrate and product); assay type: biochemical; conditions: 200 pM CK1δ, 50 μM ATP, 1.5 μM peptide, 22 hours at room temperature; read-out: CK1δ IC50 range
Procedure: CK1ε and CK1δ Kinase Assays
The kinase assay was performed in V-bottom 384-well plates. […] The reaction was incubated at room temperature for 22 hours and terminated by adding 45 μl of 35 mM EDTA to each sample. The reaction mixture was analyzed on the Caliper LABCHIP®3000 (Caliper, Hopkinton, Mass.) by electrophoretic separation of the unphosphorylated substrate and phosphorylated product. […] Compounds were dissolved at 10 mM in dimethylsulfoxide (DMSO) and evaluated at eleven concentrations. IC50 values were derived by non-linear regression analysis.

Sequence of CK1δ (P48730 whole entry): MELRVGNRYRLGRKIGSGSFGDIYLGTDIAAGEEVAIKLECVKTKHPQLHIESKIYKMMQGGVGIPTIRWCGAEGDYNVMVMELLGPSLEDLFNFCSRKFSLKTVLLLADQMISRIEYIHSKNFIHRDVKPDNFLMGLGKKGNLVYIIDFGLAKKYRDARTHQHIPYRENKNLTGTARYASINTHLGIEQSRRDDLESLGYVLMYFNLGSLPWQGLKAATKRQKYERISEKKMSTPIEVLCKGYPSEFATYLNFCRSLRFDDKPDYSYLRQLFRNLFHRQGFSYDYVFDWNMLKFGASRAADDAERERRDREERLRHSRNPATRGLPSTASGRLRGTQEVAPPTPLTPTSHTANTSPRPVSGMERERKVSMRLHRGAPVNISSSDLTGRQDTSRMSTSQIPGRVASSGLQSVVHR

Compound	IC50 [nM]
2-(3-Chloro-4-fluorophenyl)-N^5-(3,3-difluorocyclobutyl)-7-isopropyl-6,7-dihydropyrazolo[1,5-a]pyrazine-3,5(4H)-dicarboxamide [Compound A123]	10 to 100
Cc1cc(C)cc(-c2nn3c(c2C(N)=O)CN(C(=O)NC(C)(C)C)CC3)c1 [Compound 128, N^5-(tert-Butyl)-2-(3,5-dimethylphenyl)-6,7-dihydropyrazolo[1,5-a] pyrazine-3,5(4H)-dicarboxamide]	10 to 100
CC(F)(F)C(C)(C)NC(=O)N1CCn2nc(-c3ccc(Cl)c(Cl)c3)c(C(N)=O)c2C1 [Compound 201, 2-(3,4-Dichlorophenyl)-N^5-(3,3-difluoro-2-methylbutan-2-yl)-6,7-dihydropyrazolo[1,5-a] pyrazine-3,5(4H)-dicarboxamide]	0.01 to 10
NC(=O)c1c(-c2ccc(Cl)c(Cl)c2)nn2c1CN(C(=O)NC1CC3(CC3)C1)CC2 [Compound 207, 2-(3,4-Dichlorophenyl)-N^5-(spiro[2.3]hexan-5-yl)-6,7-dihydropyrazolo [1,5-a]pyrazine-3,5(4H)-dicarboxamide]	0.01 to 10
CC(CF)(CF)NC(=O)N1CCn2nc(-c3ccc(Cl)c(Cl)c3)c(C(N)=O)c2C1 [Compound 210, 2-(3,4-Dichlorophenyl)-N^5-(1,3-difluoro-2-methylpropan-2-yl)-6,7-dihydropyrazolo [1,5-a]pyrazine-3,5(4H)-dicarboxamide]	0.01 to 10
CC(CF)(CF)NC(=O)N1CCn2nc(-c3cccc(Cl)c3)c(C(N)=O)c2C1 [Compound 211, 2-(3-Chlorophenyl)-N^5-(1,3-difluoro-2-methylpropan-2-yl)-6,7-dihydropyrazolo[1,5-a]pyrazine-3,5(4H)-dicarboxamide]	0.01 to 10
NC(=O)c1c(-c2ccc(F)c(Cl)c2)nn2c1CN(C(=O)NC1(COC(F)F)CCC1)CC2 [Compound 223, 2-(3-Chloro-4-fluorophenyl)-N^5-(1-((difluoromethoxy)methyl)cyclobutyl)-6,7-dihydropyrazolo[1,5-a]pyrazine-3,5(4H)-dicarboxamide]	0.01 to 10
CC(C)(NC(=O)N1CCn2nc(-c3ccc(Cl)c(Cl)c3)c(C(N)=O)c2C1)C1CC(F)(F)C1 [Compound 228, 2-(3,4-Dichlorophenyl)-N^5-(2-(3,3-difluorocyclobutyl)propan-2-yl)-6,7-dihydropyrazolo[1,5-a] pyrazine-3,5(4H)-dicarboxamide]	0.01 to 10
CC1(CNC(=O)N2CCn3nc(-c4ccc(Cl)c(Cl)c4)c(C(N)=O)c3C2)CC(F)(F)C1 [Compound 231, 2-(3,4-Dichlorophenyl)-N^5-((3,3-difluoro-1-methylcyclobutyl)methyl)-6,7-dihydropyrazolo[1,5-a] pyrazine-3,5(4H)-dicarboxamide]	0.01 to 10
NC(=O)c1c(-c2ccc(F)c(Cl)c2)nn2c1CN(C(=O)N[C@@H]1CC[C@@H]1C(F)F)CC2 [Compound 238, 2-(3-Chloro-4-fluorophenyl)-N^5-((1R,2S)-2-(difluoromethyl)cyclobutyl)-6,7-dihydropyrazolo[1,5-a]pyrazine-3,5(4H)-dicarboxamide]	0.01 to 10
NC(=O)c1c(-c2ccc(Cl)c(Cl)c2)nn2c1CN(C(=O)N[C@@H]1CC[C@@H]1C(F)F)CC2 [Compound 240, 2-(3,4-Dichlorophenyl)-N^5-((1R,2S)-2-(difluoromethyl)cyclobutyl)-6,7-dihydropyrazolo[1,5-a] pyrazine-3,5(4H)-dicarboxamide]	0.01 to 10
NC(=O)c1c(-c2cccc(Cl)c2)nn2c1CN(C(=O)N[C@@H]1CC[C@H]1COC(F)F)CC2 [Compound 242, 2-(3-Chlorophenyl)-N^5-((1R,2R)-2-((difluoromethoxy)methyl)cyclobutyl)-6,7-dihydropyrazolo[1,5-a] pyrazine-3,5(4H)-dicarboxamide]	0.01 to 10
NC(=O)c1c(-c2cccc(Cl)c2)nn2c1CN(C(=O)NC1CC(C(F)F)C1)CC2 (centres unmarked) [Compound 256, 2-(3-Chlorophenyl)-N^5-(3-(difluoromethyl)cyclobutyl)-6,7-dihydropyrazolo[1,5-a]pyrazine-3,5(4H)-dicarboxamide]	0.01 to 10

Further lines, results first:

IC50 [nM]	Compound
0.01 to 10	NC(=O)c1c(-c2ccc(F)c(Cl)c2)nn2c1CN(C(=O)NC1CC(C(F)F)C1)CC2 (single isomer, unassigned) [Compound 252, 2-(3-Chloro-4-fluorophenyl)-N^5-(3-(difluoromethyl)cyclobutyl)-6,7-dihydropyrazolo[1,5-a]pyrazine-3,5(4H)-dicarboxamide]
0.01 to 10	NC(=O)c1c(-c2ccc(F)c(Cl)c2)nn2c1CN(C(=O)NC1CC(C(F)F)C1)CC2 (single isomer, unassigned) [Compound 253, 2-(3-Chloro-4-fluorophenyl)-N^5-(3-(difluoromethyl)cyclobutyl)-6,7-dihydropyrazolo[1,5-a]pyrazine-3,5(4H)-dicarboxamide]
0.01 to 10	CC(C)(C)NC(=O)N1Cc2c(C(N)=O)c(-c3ccc(F)c(Cl)c3)nn2C(CCO)C1 (single isomer, unassigned) [Compound A97, N^5-(tert-Butyl)-2-(3-chloro-4-fluorophenyl)-7-(2-hydroxyethyl)-6,7-dihydropyrazolo[1,5-a]pyrazine-3,5(4H)-dicarboxamide]
0.01 to 10	CC(C)(C)NC(=O)N1Cc2c(C(N)=O)c(-c3ccc(F)c(Cl)c3)nn2C(C(F)(F)F)C1 (single isomer, unassigned) [Compound A128, N^5-(tert-Butyl)-2-(3-chloro-4-fluorophenyl)-7-(trifluoromethyl)-6,7-dihydropyrazolo[1,5-a]pyrazine-3,5(4H)-dicarboxamide]
0.01 to 10	CC(F)(F)C(C)(C)NC(=O)N1CCn2nc(-c3cccc(Cl)c3)c(C(N)=O)c2C1 [Compound 174, 2-(3-Chlorophenyl)-N^5-(3,3-difluoro-2-methylbutan-2-yl)-6,7-dihydropyrazolo[1,5-a] pyrazine-3,5(4H)-dicarboxamide]
0.01 to 10	CO[C@H]1C[C@@H](NC(=O)N2CCn3nc(-c4ccc(F)c(Cl)c4)c(C(N)=O)c3C2)C1 [Compound 191, 2-(3-Chloro-4-fluorophenyl)-N^5-((1s,3s)-3-methoxycyclobutyl)-6,7-dihydropyrazolo[1,5-a] pyrazine-3,5(4H)-dicarboxamide]
0.01 to 10	CO[C@H]1C[C@H](NC(=O)N2CCn3nc(-c4ccc(F)c(Cl)c4)c(C(N)=O)c3C2)C1 [Compound 192, 2-(3-Chloro-4-fluorophenyl)-N^5-((1r,3r)-3-methoxycyclobutyl)-6,7-dihydropyrazolo[1,5-a] pyrazine-3,5(4H)-dicarboxamide]
0.01 to 10	NC(=O)c1c(-c2ccc(F)c(Cl)c2)nn2c1CN(C(=O)NCC1CCC(F)(F)CC1)CC2 [Compound 194, 2-(3-Chloro-4-fluorophenyl)-N^5-((4,4-difluorocyclohexyl)methyl)-6,7-dihydropyrazolo[1,5-a] pyrazine-3,5(4H)-dicarboxamide]
0.01 to 10	NC(=O)c1c(-c2ccc(F)c(Cl)c2)nn2c1CN(C(=O)N[C@@H]1C[C@@H]3[C@H](C1)C3(F)F)CC2 [Compound 197, 2-(3-Chloro-4-fluorophenyl)-N^5-((1R,3s,5S)-6,6-difluorobicyclo[3.1.0]hexan-3-yl)-6,7-dihydropyrazolo[1,5-a] pyrazine-3,5(4H)-dicarboxamide]
0.01 to 10	NC(=O)c1c(-c2ccc(F)c(Cl)c2)nn2c1CN(C(=O)N[C@H]1C[C@@H]3[C@H](C1)C3(F)F)CC2 [Compound 198]
